What is called IC50 is the concentration at which inhibition is half-maximal.

Our source for the IC50 and tumor size growth values is US20240208961A1, “EIF4E INHIBITORS AND USES THEREOF” (PIC Therapeutics, Inc., priority 2022, published 2024).

One experiment has as its system MM.1S. Description: Cell viability assay, suspension cell line, 5 day Alamar Blue (Example 8): MM.1S. To be noted: Homo sapiens, MM1.S, 120 h, Multiple Myeloma (Steroid Sensitive) Cancer Cell. In kind it is cell-based. On the procedure:
(§1) Cell viability assays were performed on certain compounds of the disclosure, according to the following procedure.
(§2) Cell line specific media conditions used:
(§3) The procedure for suspension cell line compound screening was as follows:
(§4) Day 1: Cell Seeding and Compound Dosing
(§5) • Cells were seeded 2×10^5 in 96-well cell culture treated tissue culture plates: 87.5 μL/well; MM.1 S, MM,1R, NCIH510A. • 5-fold serial dilution (8 point) of each compound in DMSO 0-25 mM in compound storage plates was prepared (stored at −80° C. if not to be used immediately). • Cells were rinsed with 1% FBS Media (appropriate to cell line as described above) and replaced with 87.5 μL media prior to dosing. • DMSO compound dilution series was diluted in 1% FBS media (appropriate to cell line as described above)—2 μL in 248 μL to give an 8× final concentration. • Cells were dosed 12.5 μL/well in triplicate to give final dose curved on cells 0-25 μM. • Media blank 100 μL/well×8 was set up. • All plates were incubated at 37° C.
(§6) Day 6: 5 Day Viability Assay
(§7) • Alamar Blue viability reagent was added (10 μL per well) and incubated for 3 hours at 37° C. prior to fluorescence detection (Ex560 nm/Em590 nm) on a Varioskan Lux multimode plate reader.
(§8) Results from cell viability assays are summarized in Table 23, wherein A represents IC50≤1 μM; B represents 1 μM<IC50≤8 μM; and C represents IC50>8 μM. Blank cells indicate that the compound was not tested in a particular assay.
For orientation: The colour change of resazurin is a common sign of viable cells or microbes.

A further experiment relates to ZR-75-1. Kind of experiment: ZR-75-1 compound screening cell viability, Alamar Blue (Example 6). It counts as cell-based. The note with it: Homo sapiens, 96 h, ZR-75-1 cells, Media 1% FBS, read-out: ZR-75-1 Cell Viability, 4 Days: IC50.
The test system of the next experiment is LoVo. Description: Cell viability assay, adherent cell line, 5 day Alamar Blue (Example 8): LoVo. In kind it is cell-based. The note with it: Homo sapiens, 120 h, Colorectal Cancer Cell Viability. On the procedure: as §1, §2
(§9) The procedure for adherent cell line compound screening was as follows:
(§10) • Cells were seeded in 96-well cell culture treated tissue culture plates: ZR-75-1, NIHOVCAR3, T47D, and LOVO cells 4000 cells/well; and HPAFII 3000 cell/well
(§11) Day 3: Compound Dilution and Dosing
as §5, with “•” for “• Cells were seeded 2×10^5 in 96-well cell culture treated tissue culture plates: 87.5 μL/well; MM.1 S, MM,1R, NCIH510A. •”, “dosing. HPAFII was screened in normal 10% FBS Media.” for “dosing.”
(§12) Day 8: 5 Day Viability Assay
as §7, §8

The next experiment relates to HPAFII. Kind of experiment: Cell viability assay, adherent cell line, 5 day Alamar Blue (Example 8): HPAFII. The note with it: Homo sapiens, HPAF-II, 120 h, Pancreatic Cancer Cell. In kind it is cell-based. Here is the method:
as §1, §2, §9, §10, §11
as §5, with “•” for “• Cells were seeded 2×10^5 in 96-well cell culture treated tissue culture plates: 87.5 μL/well; MM.1 S, MM,1R, NCIH510A. •”, “dosing. HPAFII was screened in normal 10% FBS Media.” for “dosing.”
as §12, §7, §8

For the next experiment, the system named is MM.1R. Description: Cell viability assay, suspension cell line, 5 day Alamar Blue (Example 8): MM.1R. The note with it: 120 h, Multiple Myeloma (Steroid Resistant) Cancer Cell. In kind it is cell-based. Here is the method:
as §1, §2, §3, §4, §5, §6, §7, §8

In a further experiment the test system is NIHOVCAR3. Description: Cell viability assay, adherent cell line, 5 day Alamar Blue (Example 8): NIHOVCAR3. To be noted: Homo sapiens, OVCAR-3, 120 h, OVCAR3, Ovarian Cancer Cell. It counts as cell-based. Here is the method: as §1, §2, §9, §10, §11
as §5, with “•” for “• Cells were seeded 2×10^5 in 96-well cell culture treated tissue culture plates: 87.5 μL/well; MM.1 S, MM,1R, NCIH510A. •”, “dosing. HPAFII was screened in normal 10% FBS Media.” for “dosing.”
as §12, §7, §8

In the next experiment the test system is ZR-75-1 tumor. Description: ZR-75-1 subQ CDX model. In kind it is in vivo. To be noted: female BALB/c nude mice, 50 mg/kg, PO, QW, FIG. 14. Here is the method: Female BALB/c nude mice were inoculated with estrogen tablets (0.36 mg/pellet, 60 days to release) 48 hours before cell inoculation. The xenograft model was established by implantation of […] of ZR-75-1 tumor cell suspension (5×10^6 cells/mouse, with 50% Matrigel) subcutaneously into the right subaxillary of female BALB/c nude mice aged 6-8 weeks. When the average tumor volume reached 153.10 mm^3, the tumor-bearing mice were randomized into treatment groups. The groups were treated as follows: Group 1: vehicle, PO, QW; Group 2: Tamoxifen 10 mg/kg, PO, QD; Group 3: Compound I-11 50 mg/kg, PO, QW.
Cell culture: The ZR-75-1 (breast, ductal carcinoma) cell was purchased from (ATCC® CRL-1500™). The base medium for this cell line ATCC-formulated RPMI-1640 Medium. To make the complete growth medium, the base medium was supplemented with 10% heat inactivated FBS and 1% PS, maintained at 37° C. in an atmosphere containing 5% CO2 in air. The tumor cells were routinely subcultured at a ratio of 1:1.5 to 1:3 every 3-6 days. Cell concentration at harvest time was 5.39×10^7 cells/mL and cell viability was 94.3% before inoculation.
Tumor inoculation: BALB/c nude mice were used in this study. Each mouse was inoculated with estrogen tablets 48 hours before cell inoculation (0.3 mg/pellet, 60 days to release). […]

Where only a bound is given, the exact number is not on record here.

Consider `CC(C)Cc1sc(Nc2ncc(-c3cccs3)cc2C(=O)O)nc1C1CCCCC1` [Compound I-3], for which the IC50 is 1000 to 8000 nM in the experiment on MM.1S; under 1000 nM in the experiment with ZR-75-1; 1000 to 8000 nM in the experiment with LoVo; at most 1000 nM in the experiment on HPAFII; 1000 to 8000 nM in the experiment on MM.1R; 1000 to 8000 nM in the experiment on NIHOVCAR3.

Regarding `CC(C)Cc1sc(Nc2ncc(-c3cccs3)cc2C(=O)O)nc1C1=CCCC1` [Compound I-8], the IC50 with MM.1S, with LoVo, in the experiment with HPAFII, with MM.1R and in the experiment with NIHOVCAR3 was at most 1000 nM throughout.

As for `CC(C)Cc1sc(Nc2ncc(-c3cccs3)cc2C(=O)O)nc1C(C)(C)C` [Compound I-11], the IC50 in the experiment with MM.1S is at most 1000 nM; in the experiment on ZR-75-1, under 1000 nM; with LoVo, at most 1000 nM; with HPAFII, at most 1000 nM; in the experiment with MM.1R, at most 1000 nM; in the experiment with NIHOVCAR3 it was at most 1000 nM. Further, the tumor size growth entry in the experiment on ZR-75-1 tumor was “reduced tumor size growth”.

`CC(C)Cc1sc(Nc2ncc(-c3cccs3)cc2C(=O)O)nc1C1(C)CCCCC1` [Compound I-27]: the IC50 is 1000 to 8000 nM with MM.1S; at most 1000 nM in the experiment on LoVo; 1000 to 8000 nM in the experiment with HPAFII; 1000 to 8000 nM in the experiment on MM.1R; 1000 to 8000 nM in the experiment with NIHOVCAR3.

For the molecule `CC(C)Cc1sc(Nc2ncc(-c3cccs3)cc2C(=O)O)nc1C1CCC(F)(F)CC1` [Compound I-29], the IC50 in the experiment with MM.1S, in the experiment with LoVo, with HPAFII, with MM.1R and in the experiment on NIHOVCAR3 was 1000 to 8000 nM throughout.
